From patent US20020111336A1, “Topical composition” (priority 2000, published 2002)

Assay: Storage stability of the gel formulation containing calcipotriol and betamethasone dipropionate
Type: physicochemical
Settings: gel formulation of Example 1; for BDP Kvant.: content of BDP; for Calcipotri. Kvant.: content of calcipotriol, in µg/g
Method: To produce 1 kg of gel formulation, 30 g of hydrogenated castor oil was melted together with 749 g of heptamethylnonane at 85-90° C. and cooled with homogenisation to about 60° C. The mixture was then cooled to 25-30° C. with stirring. 643 mg of betamethasone dipropionate was suspended in 50 g of heptamethylnonane and added to the homogenised gel base. 52.2 mg of calcipotriol hydrate or 50 mg of calcipotriol was dissolved in 170 g polyoxypropylene-15-stearyl ether and added to the mixture of the other ingredients, and the formulation was homogenised to ensure a homogenous distribution of the active components. The resulting gel formulation was stable when stored at 40° C. for 3 months, indicating a shelf life of at least 2 years at room temperature.

Row | Structure (SMILES) | % FOS (40° C. 1 month) | BDP Kvant. (40° C. 1 month) | % FOS (40° C. 3 months) | BDP Kvant. (40° C. 3 months) | % FOS (Start 5°C./1 month) | % Epi (40° C. 1 month) | Calcipotri. Kvant. (40° C. 1 month) | % Epi (40° C. 3 months) | Calcipotri. Kvant. (40° C. 3 months) | % Epi (Start 5°C./1 month)
1 | CCC(=O)OCC(=O)[C@@]1(OC(=O)CC)[C@@H](C)C[C@H]2[C@@H]3CCC4=CC(=O)C=C[C@]4(C)[C@@]3(F)[C@@H](O)C[C@@]21C [BDP, betamethasone dipropionate] | 0.91% | 0.634 mg/g | 1.02% | 0.642 mg/g | 0.23% | – | – | – | – | –
2 | C=C1/C(=C\C=C2/CCC[C@]3(C)[C@@H]([C@H](C)/C=C/[C@@H](O)C4CC4)CC[C@@H]23)C[C@@H](O)C[C@@H]1O [Calcipotri., calcipotriol] | 1.52% | – | 1.33% | – | 1.59% | 0.66% | 50.16 | 0.8% | 50.0 | 0.62%
